Values quoted from earlier work as cited in patent publication US20220378880A1, “PHARMACEUTICAL COMPOSITIONS OF GHRH ANALOGS AND USES THEREOF” (Theratechnologies Inc., priority 2019, published 2022).

[1] = healthy subjects, single SC 2 mg dose

CC/C=C/CC(=O)N[C@@H](Cc1ccc(O)cc1)C(=O)N[C@@H](C)C(=O)N[C@@H](CC(=O)O)C(=O)N[C@@H](C)C(=O)N[C@H](C(=O)N[C@@H](Cc1ccccc1)C(=O)N[C@H](C(=O)N[C@@H](CC(N)=O)C(=O)N[C@@H](CO)C(=O)N[C@@H](Cc1ccc(O)cc1)C(=O)N[C@@H](CCCNC(=N)N)C(=O)N[C@@H](CCCCN)C(=O)N[C@H](C(=O)N[C@@H](CC(C)C)C(=O)NCC(=O)N[C@@H](CCC(N)=O)C(=O)N[C@@H](CC(C)C)C(=O)N[C@@H](CO)C(=O)N[C@@H](C)C(=O)N[C@@H](CCCNC(=N)N)C(=O)N[C@@H](CCCCN)C(=O)N[C@@H](CC(C)C)C(=O)N[C@@H](CC(C)C)C(=O)N[C@@H](CCC(N)=O)C(=O)N[C@@H](CC(=O)O)C(=O)N[C@H](C(=O)N[C@@H](CCSC)C(=O)N[C@@H](CO)C(=O)N[C@@H](CCCNC(=N)N)C(=O)N[C@@H](CCC(N)=O)C(=O)N[C@@H](CCC(N)=O)C(=O)NCC(=O)N[C@@H](CCC(=O)O)C(=O)N[C@@H](CO)C(=O)N[C@@H](CC(N)=O)C(=O)N[C@@H](CCC(N)=O)C(=O)N[C@@H](CCC(=O)O)C(=O)N[C@@H](CCCNC(=N)N)C(=O)NCC(=O)N[C@@H](C)C(=O)N[C@@H](CCCNC(=N)N)C(=O)N[C@@H](C)C(=O)N[C@@H](CCCNC(=N)N)C(=O)N[C@@H](CC(C)C)C(N)=O)[C@@H](C)CC)C(C)C)[C@@H](C)O)[C@@H](C)CC [tesamorelin, trans-3-hexenoyl-GHRH(1-44)-NH2]
Absolute bioavailability (healthy adult subjects, SC 2 mg dose): less than 4%
Extent of absorption, mean (CV) [1]: 634.6 (72.4) pg·h/mL
Peak tesamorelin concentration (Cmax), mean (CV) [1]: 2874.6 (43.9) pg/mL
Thalf (expected) (single SC 2 mg dose): 0.4 h
Tmax (expected) (single SC 2 mg dose, median): 9 min
